According to US6750248B2, “Methods for preparing an estrogenic preparation and isolated estrogenic compounds from a plant and uses thereof” (National University of Singapore, priority 2001, dated 2004):
“Also recorded” adds a separate entry of the source. Read-outs that look alike come from different tables or passages of the source.

Columns and labels:
estrogen receptors = conditions: cited from earlier work
mouse heart allograft = conditions: cited from earlier work
[1] = mice, intra-peritoneal 32 mg/kg/day for 14 days; cited from earlier work
[2] = molecular target: T1, human estrogen receptor ER-alpha (Homo sapiens, UniProt P03372); experiment: ER-alpha MMTV-ERE-LUC luciferase reporter gene assay in transiently co-transfected Hela cells; format: cell-based
T1 construct: expressed in transfected cells; host or cells: Hela cells, transient co-transfection with lipofectamine
T1 sequence (P03372 1-595): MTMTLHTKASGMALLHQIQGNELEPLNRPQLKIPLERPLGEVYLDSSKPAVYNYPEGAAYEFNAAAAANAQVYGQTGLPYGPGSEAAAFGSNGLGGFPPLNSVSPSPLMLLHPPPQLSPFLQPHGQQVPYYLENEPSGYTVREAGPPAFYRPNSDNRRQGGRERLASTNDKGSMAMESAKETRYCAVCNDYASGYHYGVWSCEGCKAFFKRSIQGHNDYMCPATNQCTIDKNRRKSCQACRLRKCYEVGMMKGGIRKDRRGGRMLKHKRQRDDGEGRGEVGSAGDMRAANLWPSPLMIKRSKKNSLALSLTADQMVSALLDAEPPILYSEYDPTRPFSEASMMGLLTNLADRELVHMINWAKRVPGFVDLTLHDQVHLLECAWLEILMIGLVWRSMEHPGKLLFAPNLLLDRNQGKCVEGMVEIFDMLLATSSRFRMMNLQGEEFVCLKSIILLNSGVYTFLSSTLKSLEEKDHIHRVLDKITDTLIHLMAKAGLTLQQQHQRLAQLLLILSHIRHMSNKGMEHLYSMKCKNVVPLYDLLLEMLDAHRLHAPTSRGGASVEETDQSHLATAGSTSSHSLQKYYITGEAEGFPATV
Procedure: (§1) To assay estrogen receptor agonist activity, Hela cells were grown in 24-well microtiter plates and then transiently co-transfected with two plasmids using lipofectamine. The first plasmid comprised DNA encoding human estrogen receptor (either ER-alpha or ER-beta), and the second plasmid comprised an estrogen-driven reporter system comprising: a luciferase reporter gene (LUC) whose transcription is under the control of upstream regulatory elements comprising 4 copies of the vitelogenin estrogen response element (ERE) cloned into the mouse mammary tumor virus (MMTV) promoter (the full name for the reporter system being “MMTV-ERE-LUC”). Cells were exposed to herbal extracts in RPMI 1640 medium, supplemented with 10% charcoal-treated fetal calf serum, 2 mM L-glutamine, 0.1 mM non-essential amino acids and 1 mM sodium pyruvate for 42-48 hours at 37° C. in a 5% carbon dioxide incubator. […] Replicate wells exposed to the solvent in which herbal extracts were dissolved (i.e. ethanol or methanol) were used as negative controls. After the 42-48 hr incubation period, cells were rinsed with phosphate buffered saline(PBS), lysis buffer (Promega Corp) was added, and cell lysates collected for measurement of luciferase activity with a luminometer. […] All data points are in triplicate.

[3] = molecular target: T2, human estrogen receptor ER-beta (Homo sapiens, UniProt Q92731); experiment: ER-beta MMTV-ERE-LUC luciferase reporter gene assay in transiently co-transfected Hela cells; format: cell-based; conditions: for ER-alpha versus ER-beta selectivity (in words): compared with ER-alpha
T2 construct: expressed in transfected cells; host or cells: Hela cells, transient co-transfection with lipofectamine
Procedure: as §1

[4] = test system: human estrogen receptor (either ER-alpha or ER-beta); experiment: Estrogen receptor bioassay as in Example 1, ER subtype not stated; format: cell-based; conditions: under the conditions described herein
Procedure: as §1

T2 sequence (Q92731 whole entry): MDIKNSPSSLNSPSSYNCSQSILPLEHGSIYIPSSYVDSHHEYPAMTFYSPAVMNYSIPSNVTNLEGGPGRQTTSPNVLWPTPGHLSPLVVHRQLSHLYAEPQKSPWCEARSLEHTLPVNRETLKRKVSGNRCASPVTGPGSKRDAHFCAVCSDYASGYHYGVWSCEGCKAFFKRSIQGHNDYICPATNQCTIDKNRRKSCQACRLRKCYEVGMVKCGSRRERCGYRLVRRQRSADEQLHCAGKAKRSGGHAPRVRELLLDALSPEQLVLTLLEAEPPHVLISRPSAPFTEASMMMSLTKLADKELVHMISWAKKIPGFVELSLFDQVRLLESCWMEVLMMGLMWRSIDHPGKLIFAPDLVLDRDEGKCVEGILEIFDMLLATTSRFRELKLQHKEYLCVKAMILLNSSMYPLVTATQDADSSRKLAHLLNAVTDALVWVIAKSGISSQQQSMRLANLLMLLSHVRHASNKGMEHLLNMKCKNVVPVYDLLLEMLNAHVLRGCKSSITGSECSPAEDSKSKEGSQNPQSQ

| SMILES | Relative potency of estrogenic activity compared to genistein (estrogen receptors) | ER-alpha agonist activity (in words) [2] | Estrogenic activity (fold increased over vehicle), ER-alpha ([2]; dose 0.05 μg/ml) | Estrogenic activity (fold increased over vehicle), ER-alpha ([2]; dose 0.5 μg/ml) | Estrogenic activity (fold increased over vehicle), ER-alpha ([2]; dose 5 μg/ml) | ER-beta agonist activity (in words) [3] | Estrogenic activity (fold increased over vehicle), ER-beta ([3]; dose 0.05 μg/ml) | Estrogenic activity (fold increased over vehicle), ER-beta ([3]; dose 0.5 μg/ml) | Estrogenic activity (fold increased over vehicle), ER-beta ([3]; dose 5 μg/ml) | other results |
| --- | --- | --- | --- | --- | --- | --- | --- | --- | --- | --- |
| O=c1cc(-c2ccc(O)c(O)c2)oc2cc(O)cc(O)c12 [Luteolin] | 58% | – | – | – | – | – | – | – | – | – |
| COc1ccc(-c2oc3c(CC=C(C)C)c(O)cc(O)c3c(=O)c2O[C@@H]2O[C@@H](C)[C@H](O)[C@@H](O)[C@H]2O)cc1 [Baihuoside I] | – | – | – | – | – | – | – | – | – | Mouse heart allograft survival (mouse heart allograft): effective at prolonging mouse heart allograft survival; Side effects [1]: no side effects |
| CC(C)=CCc1cc(-c2cc(=O)c3c(O)cc(O)cc3o2)cc2c1OC(C(C)(C)O)C2O (stereo not drawn) [Compound III] | – | very weak ER alpha activity | 1.031 fold | 2.357 fold | 2.694 fold | activated ER-beta strongly | 1.514 fold | 6.093 fold | 23.132 fold | ER-alpha activity as % of that of estradiol [2]: 26%; Concentration with ER-beta activity equivalent to estradiol at 1 nM [3]: 15 ng/mL; Factor by which ER-beta is activated more strongly than ER-alpha ([3]; at 5 μg/ml): about nine-fold; ER-alpha versus ER-beta selectivity (in words) [3]: activates ER-beta more strongly than it activates ER-alpha; also recorded: shows specificity for ER-beta; ER-alpha versus ER-beta selectivity (in words) ([3]; listed as AF1): stronger than that observed for ER-alpha estrogen receptors; ER-beta stimulatory activity compared with estradiol (in words) ([3]; dose-dependent): stronger than that observed for estradiol |
| CC(C)=CCc1cc(-c2cc(=O)c3c(O)cc(O)cc3o2)ccc1O [Compound I, yinyanghuo D] | – | can activate both ER-alpha and ER-beta | 4.940 fold | 9.089 fold | 11.618 fold | can activate both ER-alpha and ER-beta | 2.598 fold | 18.763 fold | 13.289 fold | ER-alpha agonist activity (in words) ([2]; listed as AF6): strong ER-alpha and ER-beta activity; ER-alpha versus ER-beta selectivity (in words) ([3]; listed as AF6): activate both ER-alpha and ER-beta equally; also recorded: estrogen receptor agonist activity on both ER-alpha and ER-beta; ER-beta agonist activity (in words) ([3]; listed as AF6): strong ER-alpha and ER-beta activity |
| C=C(C)C(O)Cc1cc(-c2cc(=O)c3c(O)cc(O)cc3o2)cc(CC(O)C(=C)C)c1O (stereo not drawn) [Compound II] | – | – | – | – | – | – | – | – | – | Estrogenic activity (in words) [4]: no detectable estrogenic activity |
| O=c1c(O)c(-c2ccc(O)c(O)c2)oc2cc(O)cc(O)c12 [quercetin] | 10% | – | – | – | – | – | – | – | – | – |
